Test results from patent US20090247520A1, “INHIBITORS OF ANTIGEN RECEPTOR-INDUCED NF-kappa B ACTIVATION” (The Burnham Institute for Medical Research, priority 2008, published 2009).
Where two headings read alike, the source gives them in different places.

Experiments:
[1] = system: anti-CD3/CD28-induced IL-2 production; assay: IL-2 production by anti-CD3/CD28-stimulated Jurkat T cells (ELISA); format: cell-based, human; settings: for suppression of IL-2 production: anti-CD3/CD28 Jurkat, IKK inhibitor ≦10 μM, PKC inhibitor <0.5 μM
Method: (§1) FIG. 4A: Jurkat T cells were treated by anti-cd3/anti-cd28/anti-mouse IgG (6 μg/mL) or PMA/Ion (10 ng/mL) for 24 h, IL-2 production in medium was measured by ELISA kit. FIG. 4B-E: Jurkat T cells were pretreated by IKK inhibitor (B), PKC inhibitor (C), CID-2858522 (D) for 2 h and then treated by anti-cd3/anti-cd28/anti-mouse IgG (6 μg/mL) or PMA/Ion (10 ng/mL) for 24 h, IL-2 production in medium was measured by ELISA kit; E, Jurkat cells were treated by CID-2858522, PKC inhibitor and IKK inhibitor for 24 h, cell viability was measured by ATPlite kit.
In T cells, the antigen receptor stimulates several signal transduction pathways that converge on the IL-2 gene promoter, including NF-κB, NF-AT, and AP-1. For evaluating the effects of CID-2858522 on TCR-initiated, NF-κB-driven events in lymphocytes, we employed Jurkat T-leukemia cells, which have been utilized extensively as model for studying TCR-signaling leading to IL-2 gene expression. For these experiments, Jurkat cells were stimulated with either anti-CD3 (to activate the TCR complex) and anti-CD28 (co-stimulator) or with PMA/Ionomycin, in the presence or absence of CID-2858522, IKK inhibitor, or PKC inhibitor, then IL-2 production was measured 24 hrs later in culture supernatants. […] In contrast, CID-2858522 suppressed IL-2 production by CD3/CD28- and PMA/Ionomycin-stimulated Jurkat cells by approximately half (IC50) at concentrations <10 μM (FIG. 4D).
Lymphokine measurements. Human IL-2 or IL-8 levels in culture medium were measured by Enzyme-Linked Immunosorbent Assays (ELISAs), using BD OptEIA ELISAs (BD Biosciences, San Diego, Calif.), according to the manufacturer's protocol, using 96-well ELISA plates (BD Biosciences) and measuring absorbance within 30 minutes of initiating reactions using a SpectraMax 190 spectrophotometer (Molecular Devices).

[2] = system: anti-IgM-induced lymphocyte proliferation; assay: Lymphocyte proliferation assay (3H-Thymidine), anti-IgM-stimulated splenocytes; format: cell-based, mouse; settings: for IC50: mouse splenocytes, 3H-Thymidine incorporation, read-out: IC50, lymphocyte proliferation, B-cells (anti-IgM)
Method: (A) Isolated mouse primary splenocytes were cultured with anti-CD3/anti-CD28 (0.3 μg/mL each) or anti-IgM (3 μg/mL) for 48 h, then 1 μCi 3H-Thymidine was added for 12 h and incorporation into DNA was measured, expressing data as fold increase above unstimulated cells (mean±SD; n=3). (B-D) Primary splenocytes were pretreated for 2 h with IKK inhibitor, BMS-335541 (B), PKC inhibitor, Bisindolylmaleimide I (C) or CID-2858522 (D), then stimulated with anti-CD3/anti-CD28 (0.3 μg/mL) or anti-IgM (3 μg/mL) for 48 h. 1 μCi 3H-Thymidine was added for 12 h and incorporation into DNA was measured, expressing data as percent inhibition relative to control cells treated with DMSO (mean±SD; n=3). […] Levels of TRAF1 and β-actin were assessed by immunoblotting, quantified by densitometry and TRAF1 results reported relative to control cells, after normalization for β-actin (mean±SD). […] Then nuclear extracts were prepared and p65-DNA-binding activity was measured (mean±SD; n=3).
Lymphocyte proliferation assay. Splenocytes were isolated from normal Balb/c mice and red blood cells were removed using a mouse erythrocyte lysis kit (R&D Systems, Minneapolis, Minn.). Splenocytes were suspended in RMPI-1640 medium supplemented with 10% FBS, 1% penicillin-streptomycin, and 1 mM L-glutamine. Cells were diluted into 2×10^6 cells/mL and 200 μL were seeded in round bottom 96-well plates and incubated at 37° C. in 5% CO2 and 95% relative humidity. Cells were pretreated with compounds or DMSO diluted in medium for 2 h, then treated with anti-CD3/anti-CD28 or anti-IgM antibodies for 48 h, prior to adding 1 μCi [^3H]-Thymidine for (MP Biomedical, Solon, Ohio) 12 h. Cells were transferred to fiberglass filters (Wallac, Turku, Finland) using a FilterMate Harvester (Perkin Elmer), dried, and [^3H]-incorporation into DNA was quantified by scintillation counting Betaplate Scint (Perkin Elmer) and a MicroBetaTrilux LCS and luminescence counter (Perkin Elmer).

Jurkat cells = assay: Jurkat cell viability (ATPlite); format: cell-based; settings: 24 h
Method: as §1
Cell viability assay. Cell viability was estimated based on cellular ATP levels, measured using ATPlite kit (Perkin Elmer). Cells at a density of 10^5/mL were seeded at 90 μL per well in 96-well white plates and cultured overnight. Compounds were added (5 μL in medium) to wells and cells were cultured for […], Finally, 50 μL ATPlite solution was added to each well and luminescence activity was read using a luminometer (LJL Biosystems, Sunnyvale, Calif.).

SMILES	suppression of IL-2 production [1]	IC50 ([2]; Lymphocyte) [nM]	suppression of lymphocyte proliferation ([2]; concentrations of 5 μM, stimulus not specified)	cytotoxicity to Jurkat cells (Jurkat cells)	IC50 [2] [nM]	IC50 ([1]; Homo sapiens, CD3/CD28-stimulated Jurkat cells, 24 h, read-out: IC50, suppression of IL-2 production (by approximately half)) [nM]
Cc1ccc2nc(NCCN)c3ncc(C)n3c2c1 [BMS-345541, reference compound]	90%	~2000	essentially completely suppressed	not due to cytotoxicity		
CN(C)CCCn1cc(C2=C(c3c[nH]c4ccccc34)C(=O)NC2=O)c2ccccc21 [Bisindolylmaleimide I, reference compound]	80-90%			not due to cytotoxicity	200	
Cc1cc2nc(NCCCO)n(CC(=O)c3cc(C(C)(C)C)c(O)c(C(C)(C)C)c3)c2cc1C [Compound 1, 2-(2-(3-Hydroxypropylamino)-5,6-dimethyl-1H-benzo[d]imidazol-1-yl)-1-(3,5-di-tert-butyl-4-hydroxyphenyl)ethanone]		2000		not due to cytotoxicity		< 10000
